Measured values published in patent US9532990B2 (Zhejiang DTRM Biopharma Co. Ltd., priority 2014, dated 2017).

Experiments:
[1] = Toxicokinetic (TK) study in rats, 28-day; assay type: in vivo, rat; settings: for Cmax / Tmax / AUC(0-t): rat, in vivo; for AUC(0-t): read-out: AUC0-24 h
TMD-8 cells = experiment: Inhibition assay of tumor cell activity (cell viability); assay type: cell-based, human; settings: single agent, 48 hours, AVG
Description: Inhibition Assay of Tumor Cell Activity:
Tumor cells (TMD-8, DoHH2 and WSU-DLCL2) were transferred and attached to 96-well plates. After one night, blank buffer and selected concentrations (0.01 nM-100 μM) of the test compound solution were added. After 48 hours incubation, CellTiter-Go was added to lyse the cells. Recording luminescent signal and calculate the percent inhibition of cell viability.
TMD-8 is a sensitive human diffuse large B-cell lymphoma cell line, and DoHH2 is a more difficult to treat human follicular lymphoma cell line, while WSU-DLCL2 is a multi-drug resistant (MDR) human non-Hodgkin's lymphoma cell line. Drug combination therapies provided better efficacies in all three tumor models than single targeted agent alone.

TMD-8 lymphoma xenograft = TMD-8 lymphoma xenograft SCID mouse model; assay type: in vivo; settings: BID; for Antitumor effect: Oral
Description: Compounds (Compounds 45 and others) alone and its combinations were evaluated against tumor growth in xenograft models in female CB-17 SCID mice. The TMD-8, DoHH2, WSU-DLCL2 tumor cells were maintained in vitro as a suspension culture in RPMI-1640 medium supplemented with 10% heat inactivated fetal calf serum at 37° C. in an atmosphere of 5% CO2 in air. The tumor cells were routinely subcultured twice weekly. The cells growing in an exponential growth phase were harvested and counted for tumor inoculation. Each mouse was inoculated subcutaneously at the right flank with the tumor cells (10×10^6) in 0.2 ml of PBS with Matrigel (1:1) for tumor development. The treatments were started after the average tumor size reached approximately 100-200 mm^3. Each group consisted of 6-10 tumor-bearing mice. The testing article (vehicle, compound or combination) was orally administrated to the mice according to the predetermined doses for 14-days or 21-days. Animal body weight and tumor volume were measured every 2-or 3-days throughout the treatment.

[2] = Pharmacokinetic study in male SD rats; assay type: in vivo; settings: rat, plasma
Description: A pharmacokinetic study in male SD rats: Male SD rats for pharmacokinetic study within 24 hours were divided into two groups: intravenous administration and oral administration. Each group has three animals. For group of intravenous administration, blood samples were collected at pre-dose, 0.0833, 0.167, 0.5, 1, 2, 4, 8, 24 h post-dose; for group of oral administration, blood samples were collected at pre-dose, 0.167, 0.5, 1, 2, 4, 8, 24 h post-dose. After blood collection, HPLC-MS/MS was applied to determine plasma concentrations of the compound.

[3] = Toxicokinetic (TK) study in dogs, 28-day; assay type: in vivo, dog; settings: for Cmax / Tmax / AUC(0-t): dog, in vivo; for AUC(0-t): read-out: AUC0-24 h
[4] = Pharmacokinetic study in Beagle dogs; assay type: in vivo; settings: dog, plasma
Description: […] Each group has three animals. For group of intravenous administration, blood samples were collected at pre-dose, 0.033, 0.083, 0.25, 0.5, 1, 3, 6, 9, 24 h post-dose; for group of oral administration, blood samples were collected at pre-dose, 0.083, 0.25, 0.5, 1, 3, 6, 9, 24 h post-dose. After blood collection, HPLC-MS/MS was applied to determine plasma concentrations of the compound.

[5] = female, 40 mg/kg, Study Day 1, Female
[6] = female, 40 mg/kg, Study Day 28, Female
[7] = female, 100 mg/kg, Study Day 1, Female
[8] = female, 100 mg/kg, Study Day 28, Female
[9] = female, 200 mg/kg, Study Day 1, Female
[10] = female, 200 mg/kg, Study Day 28, Female
[11] = male, 40 mg/kg, Study Day 1, Male
[12] = male, 40 mg/kg, Study Day 28, Male
[13] = male, 100 mg/kg, Study Day 1, Male
[14] = male, 100 mg/kg, Study Day 28, Male
[15] = male, 200 mg/kg, Study Day 1, Male
[16] = male, 200 mg/kg, Study Day 28, Male
[17] = IV, 2 mg/kg, mean, read-out: Vdss
[18] = female, 15 mg/kg/day, Study Day 1, Female
[19] = female, 15 mg/kg/day, Study Day 28, Female
[20] = female, 45 mg/kg/day, Study Day 1, Female
[21] = female, 45 mg/kg/day, Study Day 28, Female
[22] = female, 105 mg/kg/day, Study Day 28, Female
[23] = female, 150 mg/kg/day, Study Day 1, Female
[24] = male, 15 mg/kg/day, Study Day 1, Male
[25] = male, 15 mg/kg/day, Study Day 28, Male
[26] = male, 45 mg/kg/day, Study Day 1, Male
[27] = male, 45 mg/kg/day, Study Day 28, Male
[28] = male, 105 mg/kg/day, Study Day 28, Male
[29] = male, 150 mg/kg/day, Study Day 1, Male

AUC(0-inf) ([2]; IV, 2 mg/kg, mean): 1740 ng·h/mL
AUC(0-t) ([2]; IV, 2 mg/kg, mean): 1740 ng·h/mL
C0 ([2]; IV, 2 mg/kg, mean): 1390 ng/mL
clearance ([2]; IV, 2 mg/kg, mean): 20.2 mL/min/kg
half-life ([2]; IV, 2 mg/kg, mean): 0.787 h
Vd [2, 17]: 1.61 L/kg
bioavailability ([2]; PO, 10 mg/kg): 37.1%
AUC(0-inf) ([2]; PO, 10 mg/kg, mean): 3260 ng·h/mL
AUC(0-t) ([2]; PO, 10 mg/kg, mean): 3230 ng·h/mL
Cmax ([2]; PO, 10 mg/kg, mean): 641 ng/mL
Tmax ([2]; PO, 10 mg/kg, mean): 1.33 h
half-life ([2]; PO, 10 mg/kg, mean): 1.71 h
AUC(0-inf) ([4]; IV, 2 mg/kg, mean): 987 ng·h/mL
AUC(0-t) ([4]; IV, 2 mg/kg, mean): 977 ng·h/mL
C0 ([4]; IV, 2 mg/kg, mean): 663 ng/mL
clearance ([4]; IV, 2 mg/kg, mean): 34.6 mL/min/kg
half-life ([4]; IV, 2 mg/kg, mean): 2.27 h
Vd [4, 17]: 4.24 L/kg
bioavailability ([4]; PO, 5 mg/kg): 26.2%
AUC(0-inf) ([4]; PO, 5 mg/kg, mean): 574 ng·h/mL
AUC(0-t) ([4]; PO, 5 mg/kg, mean): 650 ng·h/mL
Cmax ([4]; PO, 5 mg/kg, mean): 189 ng/mL
Tmax ([4]; PO, 5 mg/kg, mean): 1.17 h
half-life ([4]; PO, 5 mg/kg, mean): 2.92 h
Structure (SMILES): C=CC(=O)N1CC[C@@H](n2nc(-c3ccc(Oc4c(F)c(F)cc(F)c4F)cc3F)c3c(N)ncnc32)C1 [Compound 45, 1-((R)-3-(4-amino-3-(2-fluoro-4-(2,3,5,6-tetrafluorophenoxy)phenyl)-1H-pyrazolo[3,4-d]pyrimidin-1-yl)pyrrolidin-1-yl)prop-2-en-1-one]
AUC compared with ibrutinib ([1]; TK data): significantly higher than that of ibrutinib
Cmax [1, 5]: 2660 ng/mL
Tmax [1, 5]: 1 h
AUC(0-t) [1, 5]: 17300 ng·h/mL
Cmax [1, 6]: 2970 ng/mL
Tmax [1, 6]: 1 h
AUC(0-t) [1, 6]: 17300 ng·h/mL
Cmax [1, 7]: 3700 ng/mL
Tmax [1, 7]: 4 h
AUC(0-t) [1, 7]: 28900 ng·h/mL
Cmax [1, 8]: 3830 ng/mL
Tmax [1, 8]: 1 h
AUC(0-t) [1, 8]: 29600 ng·h/mL
Cmax [1, 9]: 4680 ng/mL
Tmax [1, 9]: 4 h
AUC(0-t) [1, 9]: 65200 ng·h/mL
Cmax [1, 10]: 5490 ng/mL
Tmax [1, 10]: 8 h
AUC(0-t) [1, 10]: 60200 ng·h/mL
Cmax [1, 11]: 2160 ng/mL
Tmax [1, 11]: 2 h
AUC(0-t) [1, 11]: 13700 ng·h/mL
Cmax [1, 12]: 2090 ng/mL
Tmax [1, 12]: 2 h
AUC(0-t) [1, 12]: 15400 ng·h/mL
Cmax [1, 13]: 2740 ng/mL
Tmax [1, 13]: 2 h
AUC(0-t) [1, 13]: 21700 ng·h/mL
Cmax [1, 14]: 3990 ng/mL
Tmax [1, 14]: 2 h
AUC(0-t) [1, 14]: 30300 ng·h/mL
Cmax [1, 15]: 4220 ng/mL
Tmax [1, 15]: 2 h
AUC(0-t) [1, 15]: 37600 ng·h/mL
Cmax [1, 16]: 4540 ng/mL
Tmax [1, 16]: 2 h
AUC(0-t) [1, 16]: 45100 ng·h/mL
Inh % TMD-8 cell viability (TMD-8 cells; 0.01 μM): 51.66%
Inh % TMD-8 cell viability (TMD-8 cells; 0.1 μM): 52.40%
Inh % TMD-8 cell viability (TMD-8 cells; 1 uM): 55.05%
Antitumor effect (TMD-8 lymphoma xenograft; 5 mg/kg, 21 days (FIG. 2)): 33%
Antitumor effect (TMD-8 lymphoma xenograft; 10 mg/kg, 14 days (FIG. 1)): 64%
Antitumor effect (TMD-8 lymphoma xenograft; 30 mg/kg, 14 days (FIG. 1)): 82%
Antitumor effect (TMD-8 lymphoma xenograft; 90 mg/kg, 14 days (FIG. 1)): 93%
TMD-8 tumor growth suppression (TMD-8 lymphoma xenograft; multiple doses, p.o., 14 days (FIG. 1)): significant TMD-8 tumor growth suppressions were dose-depended
AUC compared with ibrutinib ([3]; TK data): significantly higher than that of ibrutinib
Cmax [3, 18]: 685 ± 212 ng/mL
Tmax [3, 18]: 1 h
AUC(0-t) [3, 18]: 2930 ng·h/mL
Cmax [3, 19]: 687 ± 123 ng/mL
Tmax [3, 19]: 2 h
AUC(0-t) [3, 19]: 3730 ± 549 ng·h/mL
Cmax [3, 20]: 1220 ± 431 ng/mL
Tmax [3, 20]: 2 h
AUC(0-t) [3, 20]: 6220 ± 3000 ng·h/mL
Cmax [3, 21]: 1060 ± 263 ng/mL
Tmax [3, 21]: 2 h
AUC(0-t) [3, 21]: 8130 ± 1490 ng·h/mL
Cmax [3, 22]: 2420 ± 670 ng/mL
Tmax [3, 22]: 2 h
AUC(0-t) [3, 22]: 17300 ± 2830 ng·h/mL
Cmax [3, 23]: 1850 ± 605 ng/mL
Tmax [3, 23]: 2 h
AUC(0-t) [3, 23]: 11200 ± 5990 ng·h/mL
Cmax [3, 24]: 746 ng/mL
Tmax [3, 24]: 2 h
AUC(0-t) [3, 24]: 3550 ng·h/mL
Cmax [3, 25]: 576 ± 145 ng/mL
Tmax [3, 25]: 2 h
AUC(0-t) [3, 25]: 3260 ± 732 ng·h/mL
Cmax [3, 26]: 1240 ± 381 ng/mL
Tmax [3, 26]: 2 h
AUC(0-t) [3, 26]: 6480 ± 1670 ng·h/mL
Cmax [3, 27]: 1470 ± 538 ng/mL
Tmax [3, 27]: 2 h
AUC(0-t) [3, 27]: 9170 ± 3810 ng·h/mL
Cmax [3, 28]: 2700 ± 769 ng/mL
Tmax [3, 28]: 2 h
AUC(0-t) [3, 28]: 16400 ± 5410 ng·h/mL
Cmax [3, 29]: 2460 ± 858 ng/mL
Tmax [3, 29]: 4 h
AUC(0-t) [3, 29]: 22900 ± 13900 ng·h/mL
